Our source for the pest or weed control, Corn plant response rating (crop injury, 0 = no effect, 100 = complete kill) and plant injury values is patent US12077503B2, “Substituted cyclic amides and their use as herbicides” (FMC CORPORATION, priority 2015, dated 2024).

Like-named read-outs stand apart in the source and are kept apart here.

Assay type in all cases: in vivo
Assay [1] relates to blackgrass (Alopecurus myosuroides). Nature of the assay: Test A postemergence. The settings on record: Alopecurus myosuroides, post-emergence, 240 h, 125 g ai/ha, Postemergence; visual injury after approximately 10 d; 0 to 100 scale where 0 is no effect and 100 is complete control; read-out: Plant response rating, Blackgrass. Summed up: (§1)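 Each rating is a visual injury score from 0 to 100 given about 10 d after treatment, judged against untreated controls kept alongside in the greenhouse. In loam soil–sand blend, seeds got a preemergence directed soil spray, while postemergence plants were 2 to 10 cm tall at spraying.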

The test system of assay [2] is barnyardgrass (Echinochloa crus-galli). Nature of the assay: Test A postemergence. The settings on record: Echinochloa crus-galli, post-emergence, 240 h, 125 g ai/ha, Postemergence; visual injury after approximately 10 d; 0 to 100 scale where 0 is no effect and 100 is complete control; read-out: Plant response rating, Barnyardgrass. Summed up: as §1
Assay [3] deals with Galium (catchweed bedstraw, Galium aparine). Nature of the assay: Test A postemergence. The settings on record: Galium, post-emergence, 240 h, 125 g ai/ha, Postemergence; visual injury after approximately 10 d; 0 to 100 scale where 0 is no effect and 100 is complete control; read-out: Plant response rating, Galium. Put shortly: as §1
Assay [4] concerns ragweed (common ragweed, Ambrosia elatior). Nature of the assay: Test A postemergence. The settings on record: Ambrosia artemisiifolia, post-emergence, 240 h, 125 g ai/ha, Postemergence; visual injury after approximately 10 d; 0 to 100 scale where 0 is no effect and 100 is complete control; read-out: Plant response rating, Ragweed. Put shortly:
as §1

Assay [5] concerns giant foxtail (Setaria faberii). Nature of the assay: Test A postemergence. The settings on record: Setaria faberi, post-emergence, 240 h, 125 g ai/ha, Postemergence; visual injury after approximately 10 d; 0 to 100 scale where 0 is no effect and 100 is complete control; read-out: Plant response rating, Foxtail, Giant. Summed up:
as §1

The subject of assay [6] is corn (Zea mays). The assay is described as follows: Test A postemergence. The settings on record: Zea mays, post-emergence, 240 h, 125 g ai/ha, Postemergence; visual injury after approximately 10 d; 0 to 100 scale where 0 is no effect and 100 is complete control. Put shortly: as §1
Assay [7] concerns pigweed (Amaranthus retroflexus). The assay is described as follows: Test A postemergence. The settings on record: Amaranthus retroflexus, post-emergence, 240 h, 125 g ai/ha, Postemergence; visual injury after approximately 10 d; 0 to 100 scale where 0 is no effect and 100 is complete control; read-out: Plant response rating, Pigweed. Summed up:
as §1

Assay [8] concerns ryegrass, Italian (Italian ryegrass, Lolium multiflorum). The assay is described as follows: Test A postemergence. The settings on record: Lolium multiflorum, post-emergence, 240 h, 125 g ai/ha, Postemergence; visual injury after approximately 10 d; 0 to 100 scale where 0 is no effect and 100 is complete control; read-out: Plant response rating, Ryegrass, Italian. Put shortly: as §1

Assay [9] deals with wheat (Triticum aestivum). Nature of the assay: Test A postemergence. The settings on record: Triticum aestivum, post-emergence, 240 h, 125 g ai/ha, Postemergence; visual injury after approximately 10 d; 0 to 100 scale where 0 is no effect and 100 is complete control; read-out: Plant response rating, Wheat. Put shortly: as §1
Assay [10] deals with Kochia (Kochia scoparia). Nature of the assay: Test A postemergence. The settings on record: Bassia scoparia, post-emergence, 240 h, 125 g ai/ha, Postemergence; visual injury after approximately 10 d; 0 to 100 scale where 0 is no effect and 100 is complete control; read-out: Plant response rating, Kochia. Put shortly: as §1
The test system of assay [11] is ducksalad (Heteranthera limosa). The assay is described as follows: Test B flooded paddy test. The settings on record: Heteranthera limosa, Flood, 250 g ai/ha; scale of 0 to 100 where 0 is no effect and 100 is complete control; read-out: Ducksalad plant response rating. Summed up:
(§2)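 Percent control, visually estimated after 13–15 d in the greenhouse on a 0–100 basis, compares treated pots with untreated ones; compound was put into paddy water 3 cm above the soil when plants had two leaves.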

Assay [12] concerns barnyardgrass (Echinochloa crus-galli). The assay is described as follows: Test B flooded paddy test. The settings on record: Echinochloa crus-galli, Flood, 250 g ai/ha; scale of 0 to 100 where 0 is no effect and 100 is complete control; read-out: Barnyardgrass plant response rating. Summed up: as §2
The test system of assay [13] is rice (Oryra sativa). Nature of the assay: Test B flooded paddy test. The settings on record: Oryza sativa, Flood, 250 g ai/ha; scale of 0 to 100 where 0 is no effect and 100 is complete control; read-out: Rice plant response rating. Summed up:
as §2

For assay [14], the system named is sedge, umbrella (small-flower umbrella sedge, Cyperus difformis). The assay is described as follows: Test B flooded paddy test. The settings on record: Cyperus difformis, Flood, 250 g ai/ha; scale of 0 to 100 where 0 is no effect and 100 is complete control; read-out: Sedge, Umbrella plant response rating. Put shortly: as §2
The test system of assay [15] is giant foxtail (Setaria faberii). Nature of the assay: Test A preemergence. The settings on record: Setaria faberi, pre-emergence, 240 h; for pest or weed control at 125 g/ha: 125 g ai/ha, 0 to 100 scale where 0 is no effect and 100 is complete control; for pest or weed control at 500 g/ha: 500 g ai/ha. Summed up: as §1
Setting [16] is: preemergence, read-out: Foxtail, Giant plant response rating.
Setting [17] is: Preemergence, visual injury vs untreated controls after approximately 10 d, read-out: Foxtail, Giant plant response rating (0 to 100 scale where 0 is no effect and 100 is complete control).
[18] abbreviates: preemergence, visual injury rating about 10 d after treatment, 0 to 100 scale (0 no effect, 100 complete control), read-out: Foxtail, Giant plant response rating.

For the compound `COc1ccc(CN2CC[C@H](c3ccc(F)cc3)[C@@H](C(=O)Nc3cccc(F)c3F)C2=O)cc1` [Compound 919], the pest or weed control at 125 g/ha in assay [1], in [2], in [3], in [4], in [5] and in [7] was 0% each time. Also, the pest or weed control at 125 g/ha in [8], in [10] and in [15] (setting [16]) was 0% each time. This compound yielded a Corn plant response rating (crop injury, 0 = no effect, 100 = complete kill) at 125 g/ha in assay [6] of 0%. Moreover, the plant injury at 125 g/ha in [9] is 0%. In addition, the pest or weed control at 250 g/ha in [11], in assay [12], in assay [13] and in assay [14] was 0% each time. Also, in [15] (setting [17]), the pest or weed control at 500 g/ha came to 0%.
Consider `O=C(Nc1cccc(F)c1F)[C@H]1C(=O)N(C2CC2)CC[C@@H]1c1cccc(C(F)(F)F)c1` [Compound 925], for which the pest or weed control at 125 g/ha was found to be 0% in assay [1]; 40% in assay [2]; 0% in assay [3]; 0% in assay [4]; 40% in [5]; 0% in assay [7]. Also, the pest or weed control at 125 g/ha turned out to be 0% in assay [8], 0% in assay [10] and 80% in assay [15] (setting [16]). For the same compound, in assay [6], the Corn plant response rating (crop injury, 0 = no effect, 100 = complete kill) at 125 g/ha was determined as 0%. Besides, the plant injury at 125 g/ha in [9] came to 0%. For the same compound, the pest or weed control at 250 g/ha in [11], in assay [12], in assay [13] and in [14] was 0% in each case. In addition, in assay [15] (setting [17]), the pest or weed control at 500 g/ha was 90%.
In the case of `Cc1cc([C@H]2CN(C)C(=O)[C@@H]2C(=O)Nc2cccc(F)c2F)ccc1Cl` [Compound 929], the pest or weed control at 125 g/ha came to 40% in assay [1]; 90% in assay [2]; 50% in assay [3]; 20% in assay [4]; 90% in assay [5]; 20% in [7]. In addition, the figures for the pest or weed control at 125 g/ha in assay [8], in assay [10] and in assay [15] (setting [16]) were 50%, 40% and 90%, respectively. The compound further displayed a Corn plant response rating (crop injury, 0 = no effect, 100 = complete kill) at 125 g/ha in assay [6] of 40%. In assay [9], the plant injury at 125 g/ha is 30%. Besides, the pest or weed control at 250 g/ha was determined as 60% in assay [11], 40% in assay [12], 0% in assay [13] and 0% in assay [14]. For the same compound, the pest or weed control at 500 g/ha in assay [15] (setting [18]) was 90%.
For the compound `Cc1cc([C@H]2CN(C)C(=O)[C@@H]2C(=O)Nc2ccc(F)c(F)c2F)ccc1Cl` [Compound 931], the pest or weed control at 125 g/ha in assay [1] was determined as 20%; in assay [2], 80%; in assay [3] it was 40%; in assay [4] it was 0%; in assay [5] it was 90%; in assay [7] it was 20%. Besides, the pest or weed control at 125 g/ha in assay [8] was 30%; in assay [10] it was 30%; in assay [15] (setting [16]), 90%. This compound also showed a Corn plant response rating (crop injury, 0 = no effect, 100 = complete kill) at 125 g/ha in [6] of 70%. The plant injury at 125 g/ha in [9] amounted to 30%. Moreover, the pest or weed control at 250 g/ha was 60% in assay [11], 65% in assay [12], 0% in [13] and 0% in [14]. In addition, the pest or weed control at 500 g/ha in [15] (setting [18]) was found to be 90%.
As to `Cc1cc([C@H]2CN(C)C(=O)[C@@H]2C(=O)Nc2ccccc2C(F)(F)F)ccc1Cl` [Compound 932], the pest or weed control at 125 g/ha was found to be 40% in assay [1]; 90% in assay [2]; 40% in [3]; 0% in [4]; 90% in assay [5]; 40% in assay [7]. Besides, the pest or weed control at 125 g/ha in [8] came to 30%; in assay [10], 30%; in assay [15] (setting [16]) it was 90%. In addition, in assay [6], the Corn plant response rating (crop injury, 0 = no effect, 100 = complete kill) at 125 g/ha worked out at 20%. Moreover, the plant injury at 125 g/ha in assay [9] was found to be 30%. Moreover, the pest or weed control at 250 g/ha came out at 30% in [11], 0% in [12], 0% in assay [13] and 0% in [14]. The pest or weed control at 500 g/ha in assay [15] (setting [18]) was 100%.
Regarding `C=CCOc1cccc(C2CN(C)C(=O)C2C(=O)Nc2cccc(F)c2F)c1` (stereo not shown) [Compound 933], the pest or weed control at 125 g/ha in assay [1] turned out to be 20%; in [2] it was 90%; in assay [3], 50%; in assay [4], 0%; in assay [5], 90%; in assay [7] it was 0%. The results for the pest or weed control at 125 g/ha in [8], in assay [10] and in assay [15] (setting [16]) were 40%, 50% and 90%, respectively. The same compound returned a Corn plant response rating (crop injury, 0 = no effect, 100 = complete kill) at 125 g/ha in [6] of 40%. In assay [9], the plant injury at 125 g/ha was 20%. Besides, the pest or weed control at 250 g/ha in [11] turned out to be 60%; in assay [12], 60%; in assay [13], 0%; in [14] it was 0%. In assay [15] (setting [18]), the pest or weed control at 500 g/ha stood at 100%.
Consider `CN1C[C@H](c2ccc(C(F)(F)F)cc2)[C@@H](C(=O)Nc2cccc(F)c2Br)C1=O` [Compound 937], for which the pest or weed control at 125 g/ha came to 30% in assay [1]; 70% in assay [2]; 70% in [3]; 20% in assay [4]; 90% in [5]; 60% in assay [7]. In addition, the pest or weed control at 125 g/ha in assay [8] worked out at 20%; in assay [10], 30%; in [15] (setting [16]), 90%. Moreover, the Corn plant response rating (crop injury, 0 = no effect, 100 = complete kill) at 125 g/ha in assay [6] is 20%. For the same compound, in assay [9], the plant injury at 125 g/ha turned out to be 20%. The pest or weed control at 250 g/ha was 45% in assay [11], 0% in [12], 0% in assay [13] and 0% in assay [14]. For the same compound, the pest or weed control at 500 g/ha in assay [15] (setting [18]) was 90%.
